Data: patent US8034819B2, “Glucokinase activator” (Kyorin Pharmaceutical Co., Ltd., priority 2007, dated 2011)

system: ICR mice; test: Hypoglycemic activity test; type: in vivo; conditions: compared with compound 1 of the invention
Method: Using ICR mice (male, 7 to 9 weeks, Charles River Laboratories Japan Inc.) the effects of each of the tested compounds on blood glucose levels were measured. Each compound was dissolved in a mixture of 60/40 of Gelucire 44/14 (trade name, manufactured by Gatefosse) and PEG 400, and the resulting mixture was orally administered (30 mg/kg, 10 mL/kg) to the mice, which had not been fed for two hours. Blood was collected by a blood collection tube coated with dipotassium ethylenediamine tetraacetate from the tail vein before administration (pre-value) and at points 0.5, 2, and 4 hours after administration. The collected blood was separated by centrifugation (4° C., 3,600×g, 3 minutes), to obtain blood plasma samples.
Each sample was diluted 5-fold with physiological saline, and the blood glucose level was measured using glucose CII-test Wako (trade name, manufactured by Wako Pure Chemical Industries Ltd.). 10 μL each of one of the samples, physiological saline, and 100 mg/dL of glucose standard solution (200 mg/dL of glucose standard solution diluted two-fold with physiological saline) were placed in each well of a 96 well flat bottom plate. Then, 150 μL per well of a developing solution was added, and the color was developed by standing for 5 minutes at 37° C. Measurement was carried out at OD 505 nm using an En Vision 2103 Multilabel Reader (trade name, manufactured by PerkinElmer). The decrease in Σ glucose from the decrease in glucose of each collected point with respect to the pre-value (average of the decrease in glucose of each collected point with respect to the pre-value) was calculated.

`O=C(Nc1nccs1)C(C[C@H]1C[C@@H](F)[C@@H](F)C1)c1ccc(S(=O)(=O)C2CC2)cc1` (single isomer, unassigned; (+)) [Reference Example 3, (+)-2-[4-(Cyclopropylsulfonyl)phenyl]-3-[(1α,3α,4α)-3,4-difluorocyclopentyl]-N-(thiazol-2-yl)propionamide] was tested. Which “hypoglycemic activity (in words)” value did it give?
Its value is “do not exhibit high hypoglycemic activity”.

Which “hypoglycemic activity (in words)” value does the source give for `O=C(Nc1nccs1)C(CC1CC(F)C(F)C1)c1ccc(S(=O)(=O)C2CC2)cc1` (single isomer, unassigned; (+)) [(+)-2-[4-(cyclopropylsulfonyl)phenyl]-3-[(1β,3α,4α)-3,4-difluorocyclopentyl]-N-(thiazol-2-yl)propionamide] here?
The value was “do not exhibit high hypoglycemic activity”.

With `O=C(Nc1nccs1)C(CC1CC(F)C(F)C1)c1ccc(S(=O)(=O)C2CC2)cc1` (single isomer, unassigned; (-)) [(−)-2-[4-(Cyclopropylsulfonyl)phenyl]-3-[(1β,3α,4α)-3,4-difluorocyclopentyl]-N-(thiazol-2-yl)propionamide] as the compound, how does the “hypoglycemic activity (in words)” value read?
The value was “do not exhibit high hypoglycemic activity”.
